The values below come from patent US20100040710A1, “Stimulation of the synthesis and of the activity of an isoform of lysyl oxidase-like LOXL for stimulating the formation of elastic fibers” (BASF Beauty Care Solutions France SAS, priority 2003, published 2010).

Format in all cases: cell-based, human
One assay deals with elastin (Eln) mRNA. Briefly: Screening of active principles by qualitative RT-PCR: elastin mRNA expression in fibroblasts. As to conditions: actives at 1% (v/v), 24 hours, fibroblasts of the abdomen of mature age adult (donor), mRNA vs actin and negative control. As for the experimental part: (§1) The active principles were tested at 1% (v/v) on fibroblasts of normal human skin (originating from the foreskin of the infant or originating from the adult). The culture was carried out, e.g. in a monolayer on 24-well culture plates, in a defined medium without serum (Fibroblast Basal Medium). The cells were sown, e.g. at 40,000 per cm^2. At the confluence, the cells are placed in contact with the actives advantageously for 24 hours. In parallel, a non-treated control (medium alone) and three positive controls (TGF-β at 1 ng/ml, IL-1α at […] and Phytokine® (Coletica, Lyons, France) at 2% (v/v)) are advantageously carried out, e.g. on the same culture plate.
(§2) The TGF-β at 1 ng/ml and the IL-1α at 50 pg/ml were tested beforehand and the stimulation of the synthesis of elastin mRNA induced by these two cytokines at these concentrations was verified by an analysis of the mRNAs, e.g. by quantitative RT-PCR (×10 for TGF-β and x6 for IL-1 alpha). After the time of placing the actives in contact with the cells, e.g. 24 hours, the media are removed and the cells are preserved e.g. by dry freezing at −80° C. after a rinsing in phosphate buffer pH 7.4. The total RNAs are extracted e.g. with the aid of an extraction kit of 96 wells on silica columns and were determined on a 96-well spectrophotometer at 260 nm (purity indicator: protein determination at 280 nm). The RNAs are diluted e.g. to 5 ng/μl. The qualitative RT-PCR in 1 step is carried out e.g. on 50 ng of initial RNA on a 96-well plate, on the genes of actin, elastin, of LOX and of LOXL. The specific primers of each gene are used e.g. at 0.5 μM: […]
(§3) The amplification parameters were advantageously the following 48° C., 30 min; 94° C., 2 min; (94° C., 30 seconds; 60° C., 30 seconds; 68° C., 30 seconds) 28 cycles for actin, 30 cycles for LOXL, 32 cycles for LOX, or 34 cycles for elastin; 68° C., 10 min; 14° C., infinity. […] The photographs of the gels were analyzed by image analysis and quantification of the intensity of the bands (Phoretix1D, France). […]

Assay [1] concerns LOXL mRNA. Briefly: Screening of active principles by qualitative RT-PCR: LOXL mRNA expression in fibroblasts. As to conditions: actives at 1% (v/v), 24 hours, fibroblasts of the abdomen of mature age adult (donor), mRNA vs actin and negative control. The procedure:
as §1, §2, §3

Assay [2] concerns LOX mRNA. Briefly: Screening of active principles by qualitative RT-PCR: LOX mRNA expression in fibroblasts. The conditions noted are these: actives at 1% (v/v), 24 hours, fibroblasts of the abdomen of mature age adult (donor), mRNA vs actin and negative control. The procedure:
as §1, §2, §3

For assay [3], the system named is LOXL mRNA. Briefly: Real time RT-PCR effectiveness study: LOXL mRNA in adult fibroblasts. The conditions noted are these: 24 hours, adult abdomen fibroblasts (donor). As for the experimental part: (§4) […] The culture was carried out e.g. in monolayer in 24-well plates, in a defined medium without serum (Fibroblast Basal Medium). The cells are sown e.g. at 40,000 per cm^2. After the time of placing the actives in contact with the cells (24 hours), the media were removed and the cells were preserved e.g. by dry freezing at −80° C. after a rinsing with phosphate buffer at pH 7.4. At the end of experimentation, the content of mRNA of elastin, of LOXL and of actin is evaluated by an mRNA analysis technique, e.g. by real time RT-PCR. For this, the couples of primers enabling the amplification of specific fragments of these genes are those described above (Example 10).
(§5) After extraction e.g. with the aid of an extraction kit in 96-wells on silica columns and determination on a 96-well spectrophotometer at 260 nm, the RNAs are diluted e.g. to 5 ng/μl. The RT-PCR reactions ([…]) were carried out by quantitative real time RT-PCR with the aid of the “Opticon” system (MJ Research). Advantageously, the reaction mixture (50 μl) introduced into the wells was the following, for each sample: • 10 μl of RNA at a concentration of 5 ng/μl, • The specific primers of the various labels sought after, • Reaction mixture (Qiagen−25 μl 2×QuantiTect SYBR Green RT-PCR master mix containing 5 mM MgCl2+0.5 μl QuantITect RT mix), the label SYBR Green I inserting in the DNA double strands during the elongation step. The RT-PCR Conditions were Advantageously the Following: Reverse Transcription: 30 minutes at 50° C., then 15 minutes at 95° C., PCR reactions: [15 seconds at 94° C., 30 seconds at 60° C. and 30 seconds at 72° C.], 50 cycles.
(§6) The absence of contamination and the purity of the amplified products were verified e.g. via the fusion curves of the amplified PCR products. The products presenting a double peak or an abnormal fusion temperature were eliminated.
(§7) The incorporation of fluorescence in the amplified DNA was evaluated continuously during the PCR cycles. This system enabled obtaining curves of fluorescence measurement as a function of the number of PCR cycles and thus enabled evaluating a relative amount of amplified DNA.
(§8) In order to take account of the cell population present, all the results were compared to the <> signal, which was used as housekeeping gene. According to the experimentation, the threshold of measurement of the C(T) (=Cycle Threshold) was fixed for T between 0.05 and 0.01, and then an arbitrary measurement unit is calculated for each gene according to the formula:
(§9) Sgene<=10^7×(1/2)^C(T)gene<>
(§10) C (T)gene <> signifying the number of cycles necessary to attain the cycle threshold of 0.01-0.05 of the gene <>.
(§11) The values of the genes of interest were compared to the <> signal by calculation of the ratio: […]

Assay [4] concerns LOX mRNA. Briefly: Real time RT-PCR effectiveness study: LOX mRNA in adult fibroblasts. As to conditions: 24 hours, adult abdomen fibroblasts (donor). (In qPCR the cycle at which signal appears reflects the starting amount.)
The test system of assay [5] is elastin mRNA. Briefly: Real time RT-PCR effectiveness study: elastin mRNA in adult fibroblasts. As to conditions: 24 hours, adult abdomen fibroblasts (donor). As for the experimental part:
as §4, §5, §6, §7, §8, §9, §10, §11

For assay [6], the system named is elastin mRNA. Put plainly: Positive controls: stimulation of elastin mRNA synthesis by quantitative RT-PCR. As to conditions: 1 ng/ml, fold (×). As for the experimental part: as §1
as §2, with “nm).” for “nm). The RNAs are diluted e.g. to 5 ng/μl. The qualitative RT-PCR in 1 step is carried out e.g. on 50 ng of initial RNA on a 96-well plate, on the genes of actin, elastin, of LOX and of LOXL. The specific primers of each gene are used e.g. at 0.5 μM:”

Marks after values point to notes of the source that are not given here.

In the case of `CCCC(=O)OC` [methyl butyrate], the “Eln Control multiplied by:” value in the assay with elastin (Eln) mRNA is 1.43. The “LOXL Control multiplied by:” value was 3.24 with LOXL mRNA [1]; 0.89 with LOXL mRNA [3] (active at 0.01%); 1.56 in the assay on LOXL mRNA [3] (active at 0.1%); 2.10* with LOXL mRNA [3] (active at 1%); 0.91 in the assay on LOXL mRNA [3] (active at 5%). Besides, the “LOX Control multiplied by:” value in the assay on LOX mRNA [2] is listed as 5.08; in the assay on LOX mRNA [4] (active at 0.01%), 1.04; in the assay with LOX mRNA [4] (active at 0.1%) it was 1.76*; in the assay on LOX mRNA [4] (active at 1%), 2.17*; in the assay on LOX mRNA [4] (active at 5%), 0.91. In addition, the “El Control multiplied by:” value in the assay with elastin mRNA [5] (active at 0.01%) was 0.92; with elastin mRNA [5] (active at 0.1%), 0.96; with elastin mRNA [5] (active at 1%), 1.25; in the assay on elastin mRNA [5] (active at 5%) it was 1.70*.
TGF-β: the “stimulation of the synthesis of elastin mRNA” value in the assay with elastin mRNA [6] is listed as 10.
Regarding ethyl decadienoate, in the assay on elastin (Eln) mRNA, the “Eln Control multiplied by:” value is on record as 2.04. For the same molecule, in the assay on LOXL mRNA [1], the “LOXL Control multiplied by:” value is 2.32. In the assay on LOX mRNA [2], the “LOX Control multiplied by:” value is reported as 3.64.
With ethyl hexenoate, the “Eln Control multiplied by:” value in the assay on elastin (Eln) mRNA is given as 1.5. For the same molecule, in the assay with LOXL mRNA [1], the “LOXL Control multiplied by:” value came out at 2.33. Moreover, the “LOX Control multiplied by:” value in the assay on LOX mRNA [2] is 3.09.
